Key:
[1] = target: T1, OX1 (Homo sapiens, UniProt O43613); assay: Orexin receptor cell-based functional assay, [Ca2+]i by FLIPR, CHO-OX1 cells; details: CHO-OX1 cells, [Ca2+]i by FLIPR, antagonist dose-range 0.1 nM-10 μM, EC90 of OXA; read-out: OX1
T1 construct: expressed in transfected cells; host or cells: CHO (CHO-OX1, kept under selection antibiotic)
T1 sequence (O43613 1-425): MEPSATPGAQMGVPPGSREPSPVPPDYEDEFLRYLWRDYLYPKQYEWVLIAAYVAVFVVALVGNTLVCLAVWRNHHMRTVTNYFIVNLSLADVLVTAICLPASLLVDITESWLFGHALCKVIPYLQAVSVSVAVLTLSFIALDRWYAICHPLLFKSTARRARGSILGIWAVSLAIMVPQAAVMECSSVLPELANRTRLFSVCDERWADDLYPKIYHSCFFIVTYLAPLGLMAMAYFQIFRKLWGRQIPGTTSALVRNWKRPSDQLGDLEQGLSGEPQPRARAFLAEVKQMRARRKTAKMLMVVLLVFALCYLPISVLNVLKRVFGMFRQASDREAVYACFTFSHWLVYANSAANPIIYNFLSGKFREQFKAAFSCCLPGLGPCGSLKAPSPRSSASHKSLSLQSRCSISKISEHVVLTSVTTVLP
Summary of the method: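 Antagonist mode FLIPR calcium read in CHO-OX1 and CHO-OX2 lines. Test compounds, dosed 0.1 nM-10 μM, preincubated 30 min after 37° C dye loading with 2.5 mM probenecid (calcium4 for 30 min or calcium6 for 2 h).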

[2] = target: T2, CYP3A4 (Homo sapiens, UniProt P08684); assay: Cytochrome P450 inhibition assay (midazolam hydroxylation); type: in vitro ADME; details: human, human liver microsomes, probe midazolam (hydroxylation to 1′-hydroxymidazolam), 10 μM test compound, midazolam at approximately its Km
T2 construct: pre-incubated with human liver microsomes and NADPH; from tissue; host or cells: human liver microsomes
Summary of the method: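 Percent inhibition of midazolam 1′-hydroxylation by 10 μM compound was measured, midazolam dosed at about Km. Time-dependent inhibition was probed by a 30 min preincubation of compound with human liver microsomes and NADPH ahead of substrate, compared against samples without preincubation.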

T2 sequence (P08684 whole entry): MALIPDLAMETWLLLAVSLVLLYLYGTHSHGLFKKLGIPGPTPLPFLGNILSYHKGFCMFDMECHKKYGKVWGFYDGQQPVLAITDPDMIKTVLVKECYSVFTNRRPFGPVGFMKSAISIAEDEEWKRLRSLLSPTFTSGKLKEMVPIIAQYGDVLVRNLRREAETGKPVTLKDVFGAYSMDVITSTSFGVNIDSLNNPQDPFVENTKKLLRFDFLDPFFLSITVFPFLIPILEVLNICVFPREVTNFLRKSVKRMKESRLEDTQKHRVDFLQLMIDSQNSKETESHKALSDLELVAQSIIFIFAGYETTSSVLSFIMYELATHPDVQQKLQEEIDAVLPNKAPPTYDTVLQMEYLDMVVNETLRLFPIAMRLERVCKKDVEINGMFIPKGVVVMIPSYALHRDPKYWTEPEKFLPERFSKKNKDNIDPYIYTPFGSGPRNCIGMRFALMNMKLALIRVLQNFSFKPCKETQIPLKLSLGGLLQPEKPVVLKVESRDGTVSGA

Row | SMILES | IC50 [1] | inhibition at 10 µM [2]
1 | Cc1ccc(-n2cccn2)c(C(=O)N2CCC[C@@H](C)[C@H]2CNc2ccc(Cl)cn2)n1 [Example A168, ((2S,3R)-2-(((5-Chloropyridin-2-yl)amino)methyl)-3-methylpiperidin-1-yl)(6-methyl-3-(1H-pyrazol-1-yl)pyridin-2-yl)methanone] | 10 nM | 59%
2 | Cc1ccc(-c2ccccn2)c(C(=O)N2CCC[C@@H](C)[C@H]2CNc2ccc(Cl)cn2)n1 [Example A169, ((2S,3R)-2-(((5-Chloropyridin-2-yl)amino)methyl)-3-methylpiperidin-1-yl)(6′-methyl-[2,3′-bipyridin]-2′-yl)methanone] | 8 nM | 60%
3 | Cc1ccc(-n2nccn2)c(C(=O)N2CCC[C@@H](C)[C@H]2CNc2ncc(F)cn2)c1 [Example A171, ((2S,3R)-2-(((5-Fluoropyrimidin-2-yl)amino)methyl)-3-methylpiperidin-1-yl)(5-methyl-2-(2H-1,2,3-triazol-2-yl)phenyl)methanone] | 370 nM | 36%
4 | Cc1ccc(-c2ccccn2)c(C(=O)N2CCC[C@@H](C)[C@H]2CNc2ncc(F)cn2)c1 [Example A179, ((2S,3R)-2-(((5-Fluoropyrimidin-2-yl)amino)methyl)-3-methylpiperidin-1-yl)(5-methyl-2-(pyridin-2-yl)phenyl)methanone] | 490 nM | 67%
5 | Cc1ccc(-c2ncccn2)c(C(=O)N2CCC[C@@H](C)[C@H]2CNc2ncc(Cl)cc2F)c1 [Example A181, ((2S,3R)-2-(((5-Chloro-3-fluoropyridin-2-yl)amino)methyl)-3-methylpiperidin-1-yl)(5-methyl-2-(pyrimidin-2-yl)phenyl)methanone] | 4 nM | 76%
6 | Cc1ccc(-c2ncccn2)c(C(=O)N2CCC[C@@H](C)[C@H]2CNc2ncc(F)cc2F)c1 [Example A182, ((2S,3R)-2-(((3,5-Difluoropyridin-2-yl)amino)methyl)-3-methylpiperidin-1-yl)(5-methyl-2-(pyrimidin-2-yl)phenyl)methanone] | 140 nM | 65%
7 | Cc1ccc(-c2ncccn2)c(C(=O)N2CCC[C@@H](C)[C@H]2CNc2ccc(C(F)(F)F)nn2)n1 [Example A185, ((2S,3R)-3-Methyl-2-(((6-(trifluoromethyl)pyridazin-3-yl)amino)methyl)piperidin-1-yl)(6-methyl-3-(pyrimidin-2-yl)pyridin-2-yl)methanone] | 46 nM | 33%
8 | Cc1ccc(-c2ncccn2)c(C(=O)N2CCC[C@@H](C)[C@H]2CNc2ccc(Cl)cn2)n1 [Example A186, ((2S,3R)-2-(((5-chloropyridin-2-yl)amino)methyl)-3-methylpiperidin-1-yl)(6-methyl-3-(pyrimidin-2-yl)pyridin-2-yl)methanone] | 5 nM | 53%
9 | Cc1ccc(-c2ncccn2)c(C(=O)N2CCC[C@@H](C)[C@H]2CNc2nnc(C(F)(F)F)s2)n1 [Example A187, ((2S,3R)-3-Methyl-2-(((5-(trifluoromethyl)-1,3,4-thiadiazol-2-yl)amino)methyl)piperidin-1-yl)(6-methyl-3-(pyrimidin-2-yl)pyridin-2-yl)methanone] | 200 nM | 40%
10 | Cc1ccc(-n2nccn2)c(C(=O)N2CCC[C@@H](C)[C@H]2CNc2ccc(C#N)cn2)n1 [Example A189, 6-((((2S,3R)-3-Methyl-1-(6-methyl-3-(2H-1,2,3-triazol-2-yl)picolinoyl)piperidin-2-yl)methyl)amino)nicotinonitrile] | 120 nM | 37%
11 | Cc1ccc(-n2nccn2)c(C(=O)N2CCC[C@@H](C)[C@H]2CNc2nc3cc(Cl)ccc3o2)n1 [Example A195, ((2S,3R)-2-(((5-Chlorobenzo[d]oxazol-2-yl)amino)methyl)-3-methylpiperidin-1-yl)(6-methyl-3-(2H-1,2,3-triazol-2-yl)pyridin-2-yl)methanone] | 4 nM | 57%
12 | Cc1ccc(-c2cccnn2)c(C(=O)N2CCC[C@@H](C)[C@H]2CNc2ccc(C(F)(F)F)cn2)c1 [Example A197, ((2S,3R)-3-methyl-2-(((5-(trifluoromethyl)pyridin-2-yl)amino)methyl)piperidin-1-yl)(5-methyl-2-(pyridazin-3-yl)phenyl)methanone] | 7 nM | 83%
13 | Cc1ccc(-c2ccccn2)c(C(=O)N2CCC[C@@H](C)[C@H]2CNc2nc3cc(Cl)ccc3o2)n1 [Example A199, ((2S,3R)-2-(((5-Chlorobenzo[d]oxazol-2-yl)amino)methyl)-3-methylpiperidin-1-yl)(6′-methyl-[2,3′-bipyridin]-2′-yl)methanone] | 15 nM | 62%
14 | C[C@@H]1CCCN(C(=O)c2cc(Cl)ccc2-c2ncccn2)[C@@H]1CNc1ccc(C(F)(F)F)nn1 [Example A200, (5-Chloro-2-(pyrimidin-2-yl)phenyl)((2S,3R)-3-methyl-2-(((6-(trifluoromethyl)pyridazin-3-yl)amino)methyl)piperidin-1-yl)methanone] | 54 nM | 73%
15 | C[C@@H]1CCCN(C(=O)c2cc(Cl)ccc2-c2ncccn2)[C@@H]1CNc1ncc(C(F)(F)F)cn1 [Example A201, (5-Chloro-2-(pyrimidin-2-yl)phenyl)((2S,3R)-3-methyl-2-(((5-(trifluoromethyl)pyrimidin-2-yl)amino)methyl)piperidin-1-yl)methanone] | 4 nM | 38%

More lines, now with the values ahead:

Row | IC50 [1] | inhibition at 10 µM [2] | SMILES
16 | 1 nM | 51% | Cc1ccc(-n2nccn2)c(C(=O)N2CCC[C@@H](C)[C@H]2CNc2ccc(C(F)(F)F)cn2)n1 [Example A174, ((2S,3R)-3-Methyl-2-(((5-(trifluoromethyl)pyridin-2-yl)amino)methyl)piperidin-1-yl)(6-methyl-3-(2H-1,2,3-triazol-2-yl)pyridin-2-yl)methanone]
17 | 1 nM | 33% | Cc1ccc(-n2nccn2)c(C(=O)N2CCC[C@@H](C)[C@H]2CNc2ncc(C(F)(F)F)cn2)n1 [Example A175, ((2S,3R)-3-Methyl-2-(((5-(trifluoromethyl)pyrimidin-2-yl)amino)methyl)piperidin-1-yl)(6-methyl-3-(2H-1,2,3-triazol-2-yl)pyridin-2-yl)methanone]
18 | 6 nM | 37% | Cc1ccc(-n2nccn2)c(C(=O)N2CCC[C@@H](C)[C@H]2CNc2ccc(C(F)(F)F)nn2)n1 [Example A176, ((2S,3R)-3-Methyl-2-(((6-(trifluoromethyl)pyridazin-3-yl)amino)methyl)piperidin-1-yl)(6-methyl-3-(2H-1,2,3-triazol-2-yl)pyridin-2-yl)methanone]
19 | 5 nM | 39% | Cc1ccc(-n2nccn2)c(C(=O)N2CCC[C@@H](C)[C@H]2CNc2ncc(Cl)cn2)n1 [Example A177, ((2S,3R)-2-(((5-Chloropyrimidin-2-yl)amino)methyl)-3-methylpiperidin-1-yl)(6-methyl-3-(2H-1,2,3-triazol-2-yl)pyridin-2-yl)methanone]
20 | 5 nM | 34% | Cc1ccc(-c2ncccn2)c(C(=O)N2CCC[C@@H](C)[C@H]2CNc2ncc(C(F)(F)F)cn2)n1 [Example A184, ((2S,3R)-3-Methyl-2-(((5-(trifluoromethyl)pyrimidin-2-yl)amino)methyl)piperidin-1-yl)(6-methyl-3-(pyrimidin-2-yl)pyridin-2-yl)methanone]
21 | 1 nM | 59% | Cc1ccc(-n2nccn2)c(C(=O)N2CCC[C@@H](C)[C@H]2CNc2ncc(C(F)(F)F)cc2F)n1 [Example A188, ((2S,3R)-2-(((3-Fluoro-5-(trifluoromethyl)pyridin-2-yl)amino)methyl)-3-methylpiperidin-1-yl)(6-methyl-3-(2H-1,2,3-triazol-2-yl)pyridin-2-yl)methanone]
22 | 2000 nM | 24% | Cc1ccc(-n2nccn2)c(C(=O)N2CCC[C@@H](C)[C@H]2CNc2ncc(C#N)cn2)n1 [Example A190, 2-((((2S,3R)-3-Methyl-1-(6-methyl-3-(2H-1,2,3-triazol-2-yl)picolinoyl)piperidin-2-yl)methyl)amino)pyrimidine-5-carbonitrile]
23 | 6 nM | 79% | Cc1ccc(-n2nccn2)c(C(=O)N2CCC[C@@H](C)[C@H]2CN(C)c2ccc(C(F)(F)F)cn2)n1 [Example A194, ((2S,3R)-3-Methyl-2-((methyl(5-(trifluoromethyl)pyridin-2-yl)amino)methyl)piperidin-1-yl)(6-methyl-3-(2H-1,2,3-triazol-2-yl)pyridin-2-yl)methanone]
